Data taken from US9334289B2, “Cephem compound having catechol or pseudo-catechol structure” (SHIONOGI & CO., LTD., priority 2011, dated 2016).
In brackets after ≈: the same amount, converted by molar mass.

Experiments:
Experiment in all cases: MIC, CLSI broth microdilution, Test Example 2
Type in all cases: cell-based
A. baumannii SR01331 = settings: Acinetobacter baumannii, SR01331; PER-1, OXA-23.51 ESBL- & OXA-type carbapenemase producing strain; cation-adjusted Iso-Sensitest broth containing human Apo-transferrin; 5×10^5 cfu/mL; read-out: Minimum Inhibitory Concentration (MIC) A. baumannii SR01331
Procedure: (§1) Measurement of Minimum Inhibitory Concentration (MIC: μg/mL) was conducted according to CLSI (Clinical and Laboratory Standards Institute) method, and the amount of bacteria for inoculation was 5×10^5 cfu/mL, and cation-adjusted Iso-Sensitest broth containing human Apo-transferrin was used as a test medium, and the experiment was conducted using broth microdilution method.

E. cloacae NCTC13464 = settings: Enterobacter cloacae, NCTC13464; CTX-M group 9 ESBL producing strain; cation-adjusted Iso-Sensitest broth containing human Apo-transferrin; 5×10^5 cfu/mL; read-out: Minimum Inhibitory Concentration (MIC) E. cloacae NCTC 13464
Procedure: as §1

E. coli ATCCBAA-196 = settings: Escherichia coli, ATCCBAA196; TEM-10 ESBL producing strain; cation-adjusted Iso-Sensitest broth containing human Apo-transferrin; 5×10^5 cfu/mL; read-out: Minimum Inhibitory Concentration (MIC) E. coli ATCC BAA-196
Procedure: as §1

E. coli ATCCBAA-200 = settings: Escherichia coli, ATCCBAA200; SHV-4 ESBL producing strain; cation-adjusted Iso-Sensitest broth containing human Apo-transferrin; 5×10^5 cfu/mL; read-out: Minimum Inhibitory Concentration (MIC) E. coli ATCC BAA-200
Procedure: as §1

E. coli SR01337 = settings: Escherichia coli, SR01337; TEM-1 ESBL producing strain; cation-adjusted Iso-Sensitest broth containing human Apo-transferrin; 5×10^5 cfu/mL; read-out: Minimum Inhibitory Concentration (MIC) E. coli SR01337
Procedure: as §1

K. pneumoniae ATCC700603 = settings: Klebsiella pneumoniae, ATCC700603; SHV18 ESBL producing strain; cation-adjusted Iso-Sensitest broth containing human Apo-transferrin; 5×10^5 cfu/mL; read-out: Minimum Inhibitory Concentration (MIC) K. pneumoniae ATCC 700603
Procedure: as §1

P. aeruginosa SR01332 = settings: Pseudomonas aeruginosa, SR01332; VIM-11 MBL producing strain (carbapenem resistance strain); cation-adjusted Iso-Sensitest broth containing human Apo-transferrin; 5×10^5 cfu/mL; read-out: Minimum Inhibitory Concentration (MIC) P. aeruginosa SR01332
Procedure: as §1

P. aeruginosa SR01335 = settings: Pseudomonas aeruginosa, SR01335; VIM-1 like MBL producing strain (carbapenem resistance strain); cation-adjusted Iso-Sensitest broth containing human Apo-transferrin; 5×10^5 cfu/mL; read-out: Minimum Inhibitory Concentration (MIC) P. aeruginosa SR01335
Procedure: as §1

SMILES | MIC (A. baumannii SR01331) [µg/mL] | MIC (E. cloacae NCTC13464) [µg/mL] | MIC (E. coli ATCCBAA-196) [µg/mL] | MIC (E. coli ATCCBAA-200) [µg/mL] | MIC (E. coli SR01337) [µg/mL] | MIC (K. pneumoniae ATCC700603) [µg/mL] | MIC (P. aeruginosa SR01332) [µg/mL] | MIC (P. aeruginosa SR01335) [µg/mL]
CC(C)(O/N=C(\C(=O)N[C@@H]1C(=O)N2C(c3nnn[n-]3)=C(C[N+]3(CCNC(=O)c4ccc(O)c(O)c4Cl)CCCCC3)CS[C@H]12)c1nc(N)sc1Cl)C(=O)[O-].[Na+] [Compound I-32] | 0.25 | 0.063 | ≤ 0.031 | 0.063 | ≤ 0.031 | ≤ 0.031 | 4 | 1
CC(C)(O/N=C(\C(=O)N[C@@H]1C(=O)N2C(c3nnn[nH]3)=C(C[N+]3(CCNC(=O)c4cc(O)c(O)c(Cl)c4)CCCC3)CS[C@H]12)c1nsc(N)n1)C(=O)[O-] [Compound I-119] | 0.5 (≈ 0.643 µM) | 0.125 (≈ 0.161 µM) | 0.5 (≈ 0.643 µM) | 0.5 (≈ 0.643 µM) | ≤ 0.031 | 0.25 (≈ 0.322 µM) | 4 (≈ 5.15 µM) | 2 (≈ 2.57 µM)
Nc1nc(/C(=N/O[C@@H](CC(=O)[O-])C(=O)[O-])C(=O)N[C@@H]2C(=O)N3C(c4nnn[n-]4)=C(C[N+]45CCC[C@H]4CN(C(=O)c4cc(O)c(O)c(F)c4)CC5)CS[C@H]23)cs1.[Na+].[Na+] (stereo partly drawn) [Compound I-63] | 1 | 0.25 | 0.063 | 0.25 | 0.063 | 0.25 | 2 | 2
CC(C)(O/N=C(\C(=O)N[C@@H]1C(=O)N2C(c3nnn[n-]3)=C(C[n+]3cccc4c3CCCN4C(=O)c3ccc(O)c(O)c3Cl)CS[C@H]12)c1nc(N)sc1Cl)C(=O)[O-].[Na+] [Compound I-28] | 0.5 | 0.5 | 0.125 | 0.5 | ≤ 0.031 | 0.125 | 1 | 1
Nc1nc(/C(=N/O[C@@H](CC(=O)[O-])C(=O)[O-])C(=O)N[C@@H]2C(=O)N3C(c4nnn[n-]4)=C(C[N+]4(CCNC(=O)c5cc(Cl)c(O)c(O)c5Cl)CCCC4)CS[C@H]23)cs1.[Na+].[Na+] [Compound I-60] | 0.5 | 0.063 | ≤ 0.031 | 0.063 | ≤ 0.031 | ≤ 0.031 | 4 | 1
Nc1nc(/C(=N/O[C@@H](CC(=O)O)C(=O)[O-])C(=O)N[C@@H]2C(=O)N3C(c4nnn[nH]4)=C(C[N@+]45CCC[C@H]4CN(C(=O)c4ccc(O)c(O)c4Cl)CC5)CS[C@H]23)c(Cl)s1 [Compound I-97] | 0.25 (≈ 0.293 µM) | 0.5 (≈ 0.586 µM) | 0.125 (≈ 0.147 µM) | 0.5 (≈ 0.586 µM) | 0.25 (≈ 0.293 µM) | 0.5 (≈ 0.586 µM) | 4 (≈ 4.69 µM) | 1 (≈ 1.17 µM)
Nc1nc(/C(=N/O[C@@H](CC(=O)O)C(=O)[O-])C(=O)N[C@@H]2C(=O)N3C(c4nnn[nH]4)=C(C[N+]4(CCNC(=O)c5ccc(O)c(O)c5F)CCCC4)CS[C@H]23)c(Cl)s1 [Compound I-103] | 0.25 (≈ 0.303 µM) | 0.125 (≈ 0.152 µM) | ≤ 0.031 | 0.125 (≈ 0.152 µM) | ≤ 0.031 | 0.5 (≈ 0.607 µM) | 2 (≈ 2.43 µM) | 1 (≈ 1.21 µM)
C[N+]1(CC2=C(c3nnn[n-]3)N3C(=O)[C@@H](NC(=O)/C(=N\O[C@@H](CC(=O)[O-])C(=O)[O-])c4csc(N)n4)[C@H]3SC2)CCN(C(=O)c2ccc(O)c(O)c2Cl)CC1.[Na+].[Na+] [Compound I-61] | 1 | 0.125 | 0.063 | 0.25 | 0.063 | 0.125 | 4 | 4
CC(C)(O/N=C(\C(=O)N[C@@H]1C(=O)N2C(c3nnn[n-]3)=C(C[N+]3(CCNC(=O)c4ccc(O)c(O)c4Cl)CCCCC3)CS[C@H]12)c1csc(N)n1)C(=O)[O-].[Na+] [Compound I-69] | 0.5 | 0.063 | 0.125 | 0.125 | ≤ 0.031 | 0.125 | 2 | 2
